Patent US10513559B2, “Amatoxin-armed therapeutic cell surface binding components designed for tumour therapy” (Deutsches Krebsforschungszentrum, priority 2009, dated 2019)

Tests used:
MCF-7 cells = experiment: proliferation assay, [3H]-thymidine incorporation, MCF-7; type: cell-based, human; details: 72 or 96 h, amanitin concentration, read-out: IC50 of inhibition of cell proliferation
Procedure: Inhibition of cell growth by amanitin-IgG conjugates was determined by incorporation of [^3H]-thymidine. Serial dilutions of amanitin-huHEA125 and amanitin in complete medium (RPMI 1640 supplemented with 10% heat-inactivated FCS, 2 mM L-glutamine and 1 mM sodium pyruvate) ranging from 2×10^−5 M to 6×10^−13 M were prepared in triplicates in a volume of 100 μl in the wells of a 96 well flat-bottom tissue culture microtiter plate. […] Plates were incubated in a humidified atmosphere at 37° C. and 5% CO2 for 72 or 96 h. At 20 h before the end of the assay, 1 μCi of [^3H]-thymidine was added. Subsequently, plates were processed with a Tomtec cell harvester and the incorporated radioactivity was determined by liquid scintillation counting (Wallac Betaplate Liquid Scintillation Counter, PerkinElmer Life and Analytical Sciences) and given as cpm.
Three examples of growth inhibition induced by different amanitin-IgG conjugates are depicted in FIGS. 5, 6, and 9. In all three experiments MCF-7 cells were used. […] In the experiment outlined in FIG. 6 huHEA125-Amanitin4 was compared with an alpha-phalloidin huHEA125 conjugate and with free Amanitin.

[1] = system: MCF-7 breast cancer cells; experiment: binding of conjugates to MCF-7 cells by flow cytometry; set-up: species or system human; details: 1 μg/ml, 1 h on ice; FITC-labeled secondary antibody; identical antibody amounts
Procedure: The abbreviation FL1-H stands for “fluorescence 1 height” which means the intensity of fluorescence 1, i.e. the green channel for FITC.
Binding of huHEA125-amanitin and huHEA125-phalloidin conjugates versus non-conjugated huHEA125 antibody was analyzed by flow cytometry. MCF-7 target cells were washed twice in FACS buffer (Dulbecco's PBS with 1% heat-inactivated fetal calf serum and 0.1% sodium azide) counted and adjusted to 2×10^7 cells per ml. Fifty μl of cell suspension was given to each well of a 96 well U-bottom microtiter plate. Immunotoxins huHEA125-amanitin1, huHEA125-amanitin4 and huHEA125-phalloidin as well as unconjugated huHEA125 antibody were added at a concentration of 1 μg/ml in a volume of 100 μl per well and incubated for 1 h on ice. The plate was centrifuged (2 min at 2000 rpm) and the supernatant was removed from the cells. Cells were re-suspended in 150 μl of FACS buffer and centrifuged again. Subsequently, 100 μl of FITC-labeled F(ab′)2 goat anti-human IgG (H+L) secondary antibody was added per well and incubated again for 1 h on ice. After two washing steps by centrifugation, cells were taken up in 100 μl/well of propidium iodide solution (1 μg/ml in FACS buffer) allowing discrimination of dead cells. Analysis was performed on a FACScan cytometer (Becton and Dickinson, Heidelberg, Germany) using CellQuest software.

**Q.** Amanitin [reference compound] was tested. Which IC50 (MCF-7 cells) did it give?
**A.** The IC50 was ~100 nM.

**Q.** With “huHEA125: chimeric anti-EpCAM antibody: mouse HEA125 variable domains, human kappa light and IgG1 heavy constant chains (SEQ ID NO: 1/2, 11)” as the substance, how does the “mean fluorescence intensity (MFI)” value [1] read?
**A.** The value was 1094.

**Q.** “α-Amanitin-glutarate-huHEA125 [huHEA125-Amanitin3]” was tested. Which IC50 (MCF-7 cells) did it give?
**A.** Its IC50 is ~0.002 nM.
